The results in this text go back to ChEMBL document CHEMBL1145309, “Synthesis of biotinylated photoaffinity probes based on arylsulfonamide gamma-secretase inhibitors” (Bioorg Med Chem Lett, 2006).

Type in all cases: protein-complex assay
In assay [1] the target is T1, Gamma-secretase (Homo sapiens) (UniProt Q96BI3+Q9NZ42+Q8WW43+P49768+Q92542+P49810). Briefly: Inhibition of beta amyloid protein 40 production relative to 4-chloro-N-(2,5-difluorophenyl)-N-(1-(2-(3-(pyrrolidin-1-yl)propoxy)phenyl)ethyl)benzenesulfonamide.
Assay [2] concerns the target Gamma-secretase. Briefly: Inhibition of beta amyloid protein 40 production.
The target in assay [3] is T1, Gamma-secretase (Homo sapiens). As to the kind of experiment: Inhibition of beta amyloid protein 40 production relative to 4-chloro-N-phenyl-N-(1-(2-(3-(pyrrolidin-1-yl)propoxy)phenyl)ethyl)benzenesulfonamide.

The structures appear in SMILES notation.

Take `CC(c1ccc(C(=O)c2ccccc2)cc1OCCCN1CCCC1)N(c1cc(F)c(OCC(=O)NCCCCCNC(=O)CCCC[C@@H]2SC[C@@H]3NC(=O)N[C@@H]32)cc1F)S(=O)(=O)c1ccc(Cl)cc1` (some centres undefined): the Ratio IC50 in assay [1] was 200. In assay [2], the IC50 came to 10 nM.

As to `CC(c1ccccc1OCCCN1CCCC1)N(c1ccc(Cl)cc1)S(=O)(=O)c1ccc(Cl)cc1` (centres undefined), the Ratio IC50 in assay [1] was 1.5. In assay [2], the IC50 was 1300 nM.

As for `CC(c1ccccc1OCCCN1CCCC1)N(c1cc(F)ccc1F)S(=O)(=O)c1ccc(Cl)cc1` (centres undefined), half-maximal inhibition in assay [2] (IC50) required 2000 nM.

With `CC(c1ccc(C(=O)c2ccc(COC(=O)NCCCCCCCCNC(=O)CCCC[C@@H]3SC[C@@H]4NC(=O)N[C@@H]43)cc2)cc1OCCCN1CCCC1)N(c1cc(F)ccc1F)S(=O)(=O)c1ccc(Cl)cc1` (some centres undefined), in assay [1], the Ratio IC50 was 328. In assay [2], this compound had an IC50 of 6.1 nM.

Take `COc1cccc(N(C(C)c2ccccc2OCCCN2CCCC2)S(=O)(=O)c2ccc(Cl)cc2)c1` (centres undefined): the Ratio IC50 in assay [1] is 3.8. The same compound displayed an IC50 in assay [2] of 530 nM.

On to `CC(c1ccccc1OCCCN1CCCC1)N(c1cccc(C(=O)c2ccccc2)c1)S(=O)(=O)c1ccc(Cl)cc1` (centres undefined), for which the Ratio IC50 in assay [1] was found to be 0.7. Half-maximal inhibition in assay [2] (IC50) was put at 3000 nM.

For `CC(c1ccccc1OCCCN1CCCC1)N(c1ccccc1)S(=O)(=O)c1ccc(F)cc1` (centres undefined), the IC50 in assay [2] came to 350 nM. The Ratio IC50 in assay [3] came to 0.03.

For the compound `CC(c1ccccc1OCCCN1CCCC1)N(c1ccccc1C(=O)c1ccccc1)S(=O)(=O)c1ccc(Cl)cc1` (centres undefined), the Ratio IC50 in assay [1] is 1.7. The compound also had an IC50 in assay [2] of 1200 nM.

With `CC(c1ccccc1OCCCN1CCCC1)N(c1ccccc1Cl)S(=O)(=O)c1ccc(Cl)cc1` (centres undefined), the Ratio IC50 in assay [1] is 4. Moreover, half-maximal inhibition in assay [2] (IC50) was put at 490 nM.

In turn, `CC(c1ccccc1OCCCN1CCOCC1)N(c1cc(F)ccc1F)S(=O)(=O)c1ccc(Cl)cc1` (centres undefined) came in with an IC50 in assay [2] of 4400 nM.

For the compound `CC(c1ccccc1OCCCN1CCCC1)N(c1ccccc1)S(=O)(=O)c1ccccc1` (centres undefined), in assay [2], 690 nM corresponded to half-maximal inhibition (IC50). Besides, in assay [3], the Ratio IC50 is 0.01.

As for `COc1ccccc1N(C(C)c1ccccc1OCCCN1CCCC1)S(=O)(=O)c1ccc(Cl)cc1` (centres undefined), the Ratio IC50 in assay [1] amounted to 4.3. In assay [2], this compound had an IC50 of 470 nM.

Compound `CC(c1ccccc1OCCCN1CCCC1)N(c1ccccc1)S(=O)(=O)c1ccc(C(F)(F)F)cc1` (centres undefined) came in with an IC50 in assay [2] of 400 nM. Moreover, the Ratio IC50 in assay [3] came out at 0.03.

Consider `CC(c1ccc(C(=O)c2ccccc2)cc1OCCCN1CCCC1)N(c1ccccc1)S(=O)(=O)c1ccc(Cl)cc1` (centres undefined), for which the Ratio IC50 in assay [1] is 0.1. The compound further registered an IC50 in assay [2] of 17000 nM.

In the case of `CC(c1ccccc1OCCCN1CCCC1)N(c1ccccc1)S(=O)(=O)c1ccc(Cl)cc1` (centres undefined), in assay [1], the Ratio IC50 turned out to be 200. Moreover, inhibition in assay [2] was half-maximal at 10 nM (IC50).

In assay [2], `CC(c1ccccc1OCCCN1CCCC1)N(c1ccccc1)S(=O)(=O)c1ccc(Br)cc1` (centres undefined) yielded an IC50 of 1900 nM. Moreover, in assay [3], the Ratio IC50 stood at 0.005.

For the compound `CC(c1ccccc1OCCCN1CCCCC1)N(c1cc(F)ccc1F)S(=O)(=O)c1ccc(Cl)cc1` (centres undefined), the IC50 in assay [2] is 2100 nM.

For `CC(c1ccc(C(=O)c2ccccc2)cc1OCCCN1CCCC1)N(c1cc(F)c(OCC(=O)NCCCCCCCCNC(=O)CCCC[C@@H]2SC[C@@H]3NC(=O)N[C@@H]32)cc1F)S(=O)(=O)c1ccc(Cl)cc1` (some centres undefined), in assay [1], the Ratio IC50 turned out to be 100. Also, the IC50 in assay [2] was determined as 20 nM.

For `CCN(CC)CCCOc1ccccc1C(C)N(c1cc(F)ccc1F)S(=O)(=O)c1ccc(Cl)cc1` (centres undefined), the IC50 in assay [2] was 1000 nM.

Turning to `CC(c1ccc(C(=O)c2ccccc2)cc1OCCCN1CCCC1)N(c1cc(F)ccc1F)S(=O)(=O)c1ccc(Cl)cc1` (centres undefined), the Ratio IC50 in assay [1] is 15. The IC50 in assay [2] turned out to be 130 nM.

`CC(c1ccccc1OCCCN1CCCC1)N(c1ccc(C(=O)c2ccccc2)cc1)S(=O)(=O)c1ccc(Cl)cc1` (centres undefined): the Ratio IC50 in assay [1] worked out at 0.6. For the same compound, the IC50 in assay [2] came to 3200 nM.

With `CC(c1ccccc1OCCCN1CCCC1)N(c1cccc(Cl)c1)S(=O)(=O)c1ccc(Cl)cc1` (centres undefined), the Ratio IC50 in assay [1] is 3.8. Besides, the IC50 in assay [2] amounted to 530 nM.

For `CC(c1ccc(C(=O)c2ccc(COC(=O)NCCCCCNC(=O)CCCC[C@@H]3SC[C@@H]4NC(=O)N[C@@H]43)cc2)cc1OCCCN1CCCC1)N(c1cc(F)ccc1F)S(=O)(=O)c1ccc(Cl)cc1` (some centres undefined), the Ratio IC50 in assay [1] is 690. For the same compound, half-maximal inhibition in assay [2] (IC50) was put at 2.9 nM.

For the compound `COc1ccc(N(C(C)c2ccccc2OCCCN2CCCC2)S(=O)(=O)c2ccc(Cl)cc2)cc1` (centres undefined), in assay [1], the Ratio IC50 amounted to 1.8. Further, the IC50 in assay [2] amounted to 1100 nM.
